We go through 4 molecules from patent US10233161B2, “Pharmaceutical compositions and salts of a 1,2,4-oxadiazole benzoic acid” (PTC Therapeutics, Inc., priority 2014, dated 2019).

For orientation: Aqueous solubility means how much of the substance goes into solution per volume. In general, Solubility refers to how much of the substance goes into solution per volume.

Data set [1] is described as follows: Comparative equilibrium solubility study of micronized and non-micronized Compound 1. The class given is physicochemical. How it is done: Objective: The purpose of this study was to evaluate the solubility of micronized and non-micronized Compound 1. The solubility study was conducted in two representative media in pH 1 (0.1 N HCl with 0.5% sodium lauryl sulfate) and in pH 7.4 (0.1M phosphate buffered saline). The experiment further compared the initial rate of dissolution and equilibrium solubilities of micronized and non-micronized Compound 1 over a period of time.
Solubility measurement procedure comprised the steps of: 1) weighing and mixing approximately 100 mg of micronized Compound 1 and 100 mL of 0.1N HCl with 0.5% SLS into amber jar 1; 2) weighing and mixing approximately 100 mg of micronized Compound 1 and 100 mL of PBS into amber jar 2; 3) weighing and mixing approximately 100 mg of non-micronized Compound 1 and 100 mL of 0.1N HCl with 0.5% SLS into amber jar 3; 4) weighing and mixing approximately 100 mg of non-micronized Compound 1 and 100 mL of PBS into amber jar 4; 5) mixing all samples in their respective amber jars using a multi purpose rotator for 2 hours; 4) sampling at 5 minutes, 10 minutes, 30 minutes, 60 minutes, 90 minutes, 120 minutes; 5) filtering the samples and 6) analyzing the filtrates using HPLC. For each time point, 10 mL of sample was drawn using a 10 mL syringe with a needle attached filter and using a syringe-top 0.45 μm PTFE syringe filter. The first 9 mL of the samples collected were put back into the original amber jar and then remaining 1 mL was transferred to HPLC vial for analysis.

Data set [2] deals with splice-site mutation in PAX6 (PAX6^Sey-1Neu). Description: Mouse model containing a splice-site mutation in PAX6 (PAX6^Sey-1Neu). The class given is in vivo. The text has this:
(§1) Additional successful results were achieved after topical administration of Compound 1 directly into the eye as an ophthalmic suspension formulation (0.9% sodium chloride, 1% Tween 80, 1% powdered Compound 1, 1% carboxymethylcellulose). The lens and retinal defects, observed in the untreated eyes, reversed in the Compound 1-treated mutant mice and closely resembled wild-type mice (FIG. 36B). […] Treatment with Compound 1 caused an increase in the PAX6 protein by 90% in the corneal and retinal epithelium protein lysates compared to wild-type mice (FIG. 36C) as measured by enzyme-linked immunosorbent assay (ELISA).

The subject of data set [3] is nonsense mutation in the mouse PAX6 gene. The data set can be described thus: Nonsense mutation mouse model of aniridia (PAX6^Sey+/−). The class given is in vivo. How it is done:
Compound 1 was administered subcutaneously to PAX6 mutant and wild-type mice for 10 days (Postnatal Day 4-14) or administered topically as an ophthalmic suspension formulation (0.9% sodium chloride, 1% Tween 80, 1% powdered Compound 1, 1% carboxymethylcellulose), twice per day for 46 days (Postnatal Day 14-60). […] In the untreated mutant mouse group, progressive in-folding of the retina and abnormally small lenses was observed.
as §1
As a test for effects on visual acuity in the mice, the optokinetic tracking response was measured, which is a behavioural response mediated through the retina-brain circuitry.

Data set [4] in a line: Dynamic Vapor Sorption (DVS) / hygroscopicity. The class given is physicochemical. Particulars: for DVS behaviour (figure legend): FIG. 17-21; for DVS result: Table 4; for Hygroscopicity (class): classified according to the European Pharmacopoeia; for DVS water uptake: from 80% to 95% r.h. (equilibrium reached); for Hygroscopicity (mass change): mass change in the range 0→85% r.h.; for DVS mass remaining higher than the original mass: upon lowering the relative humidity again (to 50% r.h.). How it is done: DVS measurements (50%→0%→95%→50% r.h.) were performed on the samples of potassium salt 1, sodium salt 1, tromethamine salt 1, L-lysine salt and magnesium salt 2.

Data set [5] in a line: Aqueous solubility determination of salts. Type of data set: physicochemical. Particulars: for pH (aqueous solubility): pH at aqueous solubility; for pH / Solubility: Table 10; for pH: pH of the filtrate; for Solubility: 500 rpm, free acid by HPLC. Here is the method: Each salt was suspended in water and shaken for 24 h at 25° C. and 500 rpm. The resulting suspensions were filtered (0.1 μm filter). The obtained solid residues were analyzed by FT-Raman. The pH of the filtrate was measured, and the concentration of the free acid was determined by HPLC.

Data set [6] can be described thus: Crystallinity estimated from PXRD. Type of data set: physicochemical. More on the design: key: +++ = high; ++ = good; + low.
[7] abbreviates: subcutaneous, 10 days (Postnatal Day 4-14), PAX6 mutant mice.
The mark [8] stands for this setting: topical 1% ophthalmic suspension.

With `O=C(O)c1cccc(-c2noc(-c3ccccc3F)n2)c1` [Compound 1, 3-[5-(2-fluoro-phenyl)-[1,2,4]oxadiazol-3-yl]-benzoic acid], the “Time at which solubility equilibrium was reached” value in data set [1] (pH 1 media) was “approximately 30 minutes”. In addition, the “Time at which equilibrium solubility was reached” value in data set [1] (pH 7.4 media) was “approximately 2 hours”. Besides, the Response to therapy entry in data set [2] is “did not show a response”. In addition, the “Optokinetic tracking response (visual acuity)” value in data set [3] (spatial frequency threshold, treated mutant mice) is on record as “significant improvement in the spatial frequency threshold”. Besides, in data set [3] (setting [7]), the “Increase of the size of the lens” value turned out to be 70% and the Retinal in-folding result is on record as “corrected the retinal in-folding”. Also, the “Disease progression and malformation” value in data set [3] (summary for the aniridia model) is “inhibited disease progression and reversed malformation in the cornea, lens and retina”. In addition, in data set [3] (setting [8]), the “Histological examination of the cornea” value is listed as “decreased corneal thickening” and the “Retina response to light stimulation” value is on record as “increased response to light stimulation”. Further, in data set [3] (topical 1% ophthalmic suspension, twice per day, Postnatal Day 14-60), the “Lens and retinal defects” value was “reversed”. For the same molecule, in data set [3] (topical 1% ophthalmic suspension, corneal and retinal epithelium protein lysates, ELISA), the “Increase in the PAX6 protein” value is given as 90%.
On to `O=C([O-])c1cccc(-c2noc(-c3ccccc3F)n2)c1.[K+]` [Potassium salt 1], for which, in data set [4], the “DVS behaviour (figure legend)” value is reported as “small irreversible water uptake”; the DVS result was “H not detected; DVS: hygroscopic sample, hydrate formation; (increase of the mass is less than 15% and equal or greater than 2%)”; the “Hygroscopicity (class)” value is “(hygroscopic) (increase of the mass is less than 15% and equal or greater than 2%)”; the DVS water uptake result was “roughly 3 wt. %”. Besides, in data set [4], the “Hygroscopicity (mass change)” value was “+7.81 wt %” and the “DVS mass remaining higher than the original mass” value is reported as around 1 wt. %. Besides, the DVS mass loss in data set [4] (humidity decreased to 0% r.h. (equilibrium not reached)) is reported as around 6 wt. %. The “DVS water uptake (mass change)” value in data set [4] (humidity further increased to 80% r.h.) is around 1.5 wt. %. In addition, the Aqueous solubility in data set [5] (Table 2, water, 24 h, 25° C.) is recorded as 57 mg/mL. Further, in data set [5] (Table 4), the Aqueous solubility was 57.00 mg/mL and the “pH (aqueous solubility)” value was found to be 9.2. For the same molecule, in data set [5], the pH amounted to 9.2. Further, in data set [5] (water, 24 h, 25° C.), the Solubility is 57 mg/mL. The Crystallinity entry in data set [6] was “+”.
For the molecule `O=C([O-])c1cccc(-c2noc(-c3ccccc3F)n2)c1.[Na+]` [Sodium salt 1], the “DVS reversible mass change” value in data set [4] (50% to 0% r.h. and again to 50% r.h.) was determined as 2 wt. %. Besides, in data set [4], the “DVS behaviour (figure legend)” value was “stepwise irreversible water uptake”; the DVS result is “acidic H not detected; DVS: hygroscopic sample, hydrate (increase of the mass is less than 15% and equal or greater than 2%)”; the “Hygroscopicity (class)” value is listed as “(very hygroscopic) (increase of the mass ≥15%)”; the “Hygroscopicity (mass change)” value is “+19.52 wt %”. Also, in data set [4], the “DVS mass remaining higher than the original mass” value was around 16 wt. %. In addition, the “DVS water uptake in one step” value in data set [4] (from 50% to 62% r.h.) is listed as “Approximately 10 wt. %”. Also, the “DVS further water uptake, second step” value in data set [4] (humidity increased to 80% r.h. (equilibrium not reached)) was around 6 wt. %. Moreover, in data set [4] (humidity increased to 95% r.h.), the “DVS water uptake up to 95% r.h.” value is recorded as 20 wt. %. Also, the Aqueous solubility in data set [5] (Table 2, water, 24 h, 25° C.) was found to be 22 mg/mL. Further, in data set [5] (Table 4), the Aqueous solubility was 22.22 mg/mL and the “pH (aqueous solubility)” value was 8.3. For the same molecule, the pH in data set [5] is 8.3. Also, the Solubility in data set [5] (water, 24 h, 25° C.) was determined as 22 mg/mL. Also, in data set [6], the Crystallinity result was “++”.
As to `NC(CO)(CO)CO.O=C(O)c1cccc(-c2noc(-c3ccccc3F)n2)c1` [Tromethamine salt 1], in data set [4], the “DVS behaviour (figure legend)” value is listed as “large reversible water uptake with hysteresis”; the DVS result is “hygroscopic sample; Aqueous solubility (increase of the mass is less than 15% and equal or greater than 2%)”; the “Hygroscopicity (class)” value was “(hygroscopic) (increase of the mass is less than 15% and equal or greater than 2%)”; the DVS water uptake is reported as around 25 wt. %. For the same molecule, the “Hygroscopicity (mass change)” value in data set [4] is listed as “+3.59 wt %”. Further, in data set [4] (below 70% r.h. on the way down), the “DVS weight loss to a value lower than the original mass” value was 3 wt. %. For the same molecule, in data set [4] (humidity decreased to 0% r.h. and then raised to 80% r.h.), the “DVS mass change” value was “no significant mass change”. Further, in data set [4] (whole DVS cycle), the “DVS overall weight loss” value came to 3%. Besides, the Aqueous solubility in data set [5] (Table 2, water, 24 h, 25° C.) was determined as 18 mg/mL. Moreover, the pH in data set [5] amounted to 8.1. In data set [5] (water, 24 h, 25° C.), the Solubility is recorded as 18 mg/mL. Besides, the Crystallinity entry in data set [6] was “+++”.
